Assay results as given in ChEMBL document CHEMBL3870333, “Synthesis of Keap1-phosphorylated p62 and Keap1-Nrf2 protein-protein interaction inhibitors and their inhibitory activity” (Bioorg Med Chem Lett, 2016).

How the values were obtained:
[1] = biological target: Sequestosome-1/Kelch-like ECH-associated protein 1 (Homo sapiens, UniProt Q14145); assay: Inhibition of recombinant GST-His-tagged Keap1-DC domain (321 to 609 residues) (unknown origin) expressed in Escherichia coli/FAM-labeled phosphorylated p62 (unknown origin) interaction measured after 30 mins by fluorescence polarization assay
Sequence of Sequestosome-1/Kelch-like ECH-associated protein 1 (Q14145 whole entry, the tested form may be a part): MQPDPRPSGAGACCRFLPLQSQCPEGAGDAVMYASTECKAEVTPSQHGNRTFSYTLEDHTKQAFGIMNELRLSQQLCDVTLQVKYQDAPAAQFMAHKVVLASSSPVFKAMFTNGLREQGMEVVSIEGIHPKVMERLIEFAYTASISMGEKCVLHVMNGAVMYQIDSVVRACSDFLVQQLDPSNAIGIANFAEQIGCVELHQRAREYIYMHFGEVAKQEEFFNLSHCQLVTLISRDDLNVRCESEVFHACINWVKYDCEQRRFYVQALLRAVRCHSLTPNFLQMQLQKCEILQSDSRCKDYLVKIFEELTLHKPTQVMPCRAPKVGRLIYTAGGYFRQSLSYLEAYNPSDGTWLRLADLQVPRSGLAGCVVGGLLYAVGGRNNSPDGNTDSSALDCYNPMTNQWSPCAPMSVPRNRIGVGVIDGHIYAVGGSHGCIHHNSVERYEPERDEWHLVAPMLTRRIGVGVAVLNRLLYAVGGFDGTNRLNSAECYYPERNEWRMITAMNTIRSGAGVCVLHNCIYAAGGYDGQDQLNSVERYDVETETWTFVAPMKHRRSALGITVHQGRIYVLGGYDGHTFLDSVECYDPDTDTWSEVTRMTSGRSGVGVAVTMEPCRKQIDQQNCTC
Sequence of Sequestosome-1/Kelch-like ECH-associated protein 1 (Q13501 whole entry, further chain, the tested form may be a part): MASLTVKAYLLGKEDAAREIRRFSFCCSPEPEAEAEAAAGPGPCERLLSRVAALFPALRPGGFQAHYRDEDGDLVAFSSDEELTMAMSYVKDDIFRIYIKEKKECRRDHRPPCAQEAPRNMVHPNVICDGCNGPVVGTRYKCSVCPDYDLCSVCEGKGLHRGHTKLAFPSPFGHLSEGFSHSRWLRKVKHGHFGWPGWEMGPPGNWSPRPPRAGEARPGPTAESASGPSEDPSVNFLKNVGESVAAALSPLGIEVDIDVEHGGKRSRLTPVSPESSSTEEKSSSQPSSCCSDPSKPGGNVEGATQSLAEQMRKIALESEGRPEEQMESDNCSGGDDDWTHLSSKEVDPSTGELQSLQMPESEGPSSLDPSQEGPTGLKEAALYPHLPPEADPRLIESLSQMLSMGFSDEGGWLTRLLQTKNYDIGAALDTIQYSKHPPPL

Homo sapiens = species on record: Homo sapiens; assay: Selectivity index, ratio of IC50 for recombinant GST-His-tagged Keap1-DC domain (321 to 609 residues) (unknown origin) expressed in Escherichia coli/FAM-labeled Nrf2 (unknown origin) interaction to IC50 for recombinant GST-His-tagged Keap1-DC domain (321 to 609 residues) (unknown origin) expressed in Escherichia coli/FAM-labeled phosphorylated p62 (unknown origin) interaction
Keap1/Nrf2 = Keap1/Nrf2 (Homo sapiens, UniProt Q14145); assay: Inhibition of recombinant GST-His-tagged Keap1-DC domain (321 to 609 residues) (unknown origin) expressed in Escherichia coli/FAM-labeled Nrf2 (unknown origin) interaction measured after 30 mins by fluorescence polarization assay
Sequence of Keap1/Nrf2 (Q16236 whole entry, the tested form may be a part): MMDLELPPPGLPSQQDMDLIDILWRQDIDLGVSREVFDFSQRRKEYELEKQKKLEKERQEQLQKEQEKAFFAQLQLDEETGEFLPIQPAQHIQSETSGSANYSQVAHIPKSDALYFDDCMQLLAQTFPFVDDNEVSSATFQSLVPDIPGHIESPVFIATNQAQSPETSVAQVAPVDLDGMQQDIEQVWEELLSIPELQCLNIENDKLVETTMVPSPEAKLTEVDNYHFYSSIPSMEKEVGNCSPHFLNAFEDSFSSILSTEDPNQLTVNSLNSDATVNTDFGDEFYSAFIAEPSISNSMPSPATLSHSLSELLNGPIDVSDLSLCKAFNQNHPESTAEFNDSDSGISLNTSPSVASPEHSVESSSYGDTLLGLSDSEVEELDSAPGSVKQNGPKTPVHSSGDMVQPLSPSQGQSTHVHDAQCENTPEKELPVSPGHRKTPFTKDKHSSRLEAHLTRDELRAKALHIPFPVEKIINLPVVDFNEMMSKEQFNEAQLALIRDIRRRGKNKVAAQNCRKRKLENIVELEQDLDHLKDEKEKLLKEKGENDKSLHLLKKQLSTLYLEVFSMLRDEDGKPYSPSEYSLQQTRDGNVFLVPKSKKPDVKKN
Sequence of Keap1/Nrf2 (Q14145 whole entry, the tested form may be a part): as the sequence (Q14145 whole entry, the tested form may be a part) above

Row | Compound | IC50 [1] | Ratio IC50 (Homo sapiens) | IC50 (Keap1/Nrf2)
1 | CCOc1ccc(S(=O)(=O)Nc2cc(SCC(=O)OC)c(NS(=O)(=O)c3ccc(OCC)cc3)c3ccccc23)cc1 | 370 nM | 1.9 | 720 nM
2 | CCOc1ccc(S(=O)(=O)Nc2cc(SCC(=O)O)c(NS(=O)(=O)c3ccc(OCC)cc3)c3ccccc23)cc1 | 180 nM | 1.1 | 200 nM
3 | CCOc1ccc(S(=O)(=O)Nc2cc(CCC(=O)O)c(NS(=O)(=O)c3ccc(OCC)cc3)c3ccccc23)cc1 | 190 nM | 1.2 | 230 nM
4 | CCOc1ccc(S(=O)(=O)Nc2cc(Sc3nc[nH]n3)c(NS(=O)(=O)c3ccc(OCC)cc3)c3ccccc23)cc1 | 1000 nM | 1.3 | 1300 nM
5 | CCOc1ccc(S(=O)(=O)Nc2cc(CC(C)=O)c(NS(=O)(=O)c3ccc(OCC)cc3)c3ccccc23)cc1 | 1500 nM | 4.1 | 6200 nM
6 | COc1ccc(S(=O)(=O)Nc2cc(CC(C)=O)c(NS(=O)(=O)c3ccc(OC)cc3)c3ccccc23)cc1 | 2400 nM | 1.3 | 3200 nM
7 | CCOc1ccc(S(=O)(=O)Nc2cc(CCCC(=O)O)c(NS(=O)(=O)c3ccc(OCC)cc3)c3ccccc23)cc1 | – | 1 | 150 nM
8 | CCOc1ccc(S(=O)(=O)Nc2ccc(NS(=O)(=O)c3ccc(OCC)cc3)c3ccccc23)cc1 | 1400 nM | 2 | 2800 nM
9 | CCOc1ccc(S(=O)(=O)Nc2cc(CC(=O)O)c(NS(=O)(=O)c3ccc(OCC)cc3)c3ccccc23)cc1 | 230 nM | 1.4 | 320 nM
